Assays:
[1] = target: T1, New Delhi metallo-β-lactamase-1 (NDM-1) (Escherichia coli, UniProt E5KIY2, K211A); assay: fluorescence quenching (binding constant KA)
T1 construct: gene blaNDM-1; NDM-1 without the signal peptide, amino-terminal histidine tag

[2] = target: T2, New Delhi metallo-β-lactamase-1 (NDM-1) (Escherichia coli, UniProt E5KIY2); assay: purified recombinant enzyme, nitrocefin hydrolysis assay; also fluorescence quenching, KA […] ([…] L/mol); assay type: biochemical
T2 construct: gene blaNDM-1; NDM-1 without the signal peptide, amino-terminal histidine tag

[3] = target: T3, New Delhi metallo-β-lactamase-1 (NDM-1) (Escherichia coli, UniProt E5KIY2, G219A); assay: fluorescence quenching (binding constant KA)
T3 construct: gene blaNDM-1; NDM-1 without the signal peptide, amino-terminal histidine tag

**Q.** For `C=CCc1ccc(O)c(-c2cc(CC=C)ccc2O)c1` [magnolol], which Kd [1] is on record?
**A.** 20.8 µM

**Q.** And the IC50 [2]?
**A.** 24.3 µM

**Q.** What about the Kd [3] of the same compound?
**A.** 18.2 µM
